Molecules are shown by their SMILES. Some results are limits rather than exact numbers.

Series [1] is described as follows: solubility in organic solvents at −10° C. It is filed as physicochemical. The following applies: for soluble at (concentration) in NMP / soluble at (concentration) in DMAc / soluble at (concentration) in dipropylene glycol dimethyl ether / soluble at (concentration) in tetralin: −10° C.; for soluble at (concentration) in AROMATIC 200: AROMATIC 200, −10° C.
Series [2] in a line: Solubility of Ex. 13 Product: 10% w/w solution in AROMATIC 200 stored in −11° C. freezer. Format: physicochemical. Particulars: 10% w/w in AROMATIC 200, −11° C. freezer, 2 weeks. The protocol: Solubility of Ex. 13 Product: A solution (10% w/w) in AROMATIC 200 was prepared at room temperature. The clear solution was placed in a −11° C. freezer for 2 weeks.

As a reminder, the melting point is the temperature, or range, at which the solid turns liquid. `c1ccc(-c2ccccc2OCc2ccc(COc3ccccc3-c3ccccc3)cc2)cc1` [1,4-bis(([1,1′-biphenyl]-2-yloxy)-methyl)benzene] had a melting point of 140 to 142 °C. The “soluble at (concentration) in NMP” value in series [1] turned out to be 10%.
On to `c1ccc(-c2ccccc2OCCCCOc2ccccc2-c2ccccc2)cc1` [1,4-bis([1,1′-biphenyl]-2-yloxy)butane], for which the melting point is 62 to 67 °C. Further, in series [1], the “soluble at (concentration) in DMAc” value is given as 10%, the “soluble at (concentration) in NMP” value was 10% and the “soluble at (concentration) in dipropylene glycol dimethyl ether” value came to 10%.
In the case of `CCCCCCCCCCCCCCOc1ccccc1-c1ccccc1` [2-(tetradecyloxy)-1,1′-biphenyl], the “soluble at (concentration) in tetralin” value in series [1] came to 7.5%.
Take `c1ccc(-c2ccccc2OCc2ccccc2COc2ccccc2-c2ccccc2)cc1` [1,2-bis(([1,1′-biphenyl]-2-yloxy)-methyl)benzene]: in series [1], the “soluble at (concentration) in AROMATIC 200” value is 10%, the “soluble at (concentration) in DMAc” value amounted to 10%, the “soluble at (concentration) in NMP” value came out at 10% and the “soluble at (concentration) in dipropylene glycol dimethyl ether” value was determined as 10%. Besides, in series [1], the “soluble at (concentration) in tetralin” value was 10%.
As to `CCCCCCCCCCCCCCCCCCOc1ccccc1-c1ccccc1` [2-(octadecyloxy)-1,1′-biphenyl], the melting point lay within 42 to 45 °C. Further, in series [1], the “soluble at (concentration) in tetralin” value is less than 5%.
Compound `CCCCCCCCCCCCOc1ccccc1-c1ccccc1` [2-(dodecyloxy)-1,1′-biphenyl] returned a melting point of 27 to 29 °C. In addition, in series [1], the “soluble at (concentration) in AROMATIC 200” value is on record as 10%, the “soluble at (concentration) in dipropylene glycol dimethyl ether” value was 10% and the “soluble at (concentration) in tetralin” value amounted to 10%.
With `c1ccc(-c2ccccc2OCc2ccc(-c3ccc(COc4ccccc4-c4ccccc4)cc3)cc2)cc1` [4,4′-bis(([1,1′-biphenyl]-2-yloxy)methyl)-1,1′-biphenyl], the melting point was 149 to 151 °C. Also, in series [1], the “soluble at (concentration) in NMP” value was determined as 10%.
As for `O=C(Oc1ccccc1-c1ccccc1)c1ccccc1` [Ex. 13 Product, [1,1′-biphenyl]-2-yl benzoate], the “crystallization from solution on cold storage” value in series [2] is listed as “No visibly detectable crystallization occurred”.

(Values after patent US9079838B2, “Ortho-phenylphenol compounds” (Dow Global Technologies LLC, priority 2011, dated 2015).)
